Data from EP0519877B1, “3-Acylamino-2-pyrrolidinones as enhancers of the processes of learning and memory and pharmaceutical compositions containing same” (Sigma-Tau Industrie Farmaceutiche Riunite S.p.A., priority 1991, dated 1992).

Test system: Male CD1 mice
Assay: Passive avoidance test following ECS-induced amnesia
Assay type: in vivo
Details: i.p., 30 minutes before training, retention assessed 24 hours later
Experimental: In order to assess the antiamnesic activity the passive avoidance test in mice was used.
Male CD1 mice (Charles River) weighting 25-26 g fed on a normal diet were used for the ECS-induced amnesia test.
The compounds were administered i.p.at doses equimolar to 9 and 0.9 mg/kg […]. The compounds were dissolved in saline.
The apparatus for passive avoidance conditioning was a black plastic chamber (42 x 42 cm, height 40 cm) provided with a floor constructed of metal rods that could be electrified. From the front wall extended a white runway, 30 cm long and 10 cm wide provided with side walls 12 cm high, which led into the box through a guillotine door.
30 minutes following treatment with the compounds, the animals were placed on the runway. After one minute of adaptation, the door was raised and the time employed by the animal to enter the darkened box with all four feet was recorded.
Upon entry, the guillotine door was lowered and three seconds thereafter the rods were electrified, 0.24 mA for 2 seconds.
The mouse was then removed from the chamber and immediately administered an electroshock delivered through spring clips attached to the ears (square wave, intensity 20 mA, amplitude 0.6 msec, duration 0.5 s, frequency 50 Hz).
Immediately thereafter the animal was placed in the housing cage. Retention was assessed 24 hours later by placing the animal on the runway and again evaluating the latency in entering the chamber, using an end-point of 300 seconds (Bammer, loc.cit.).
In each experiment, two groups of animals in addition to the treated ones were used, that were defined as follows: • (1) ceiling control animals (treated with placebo and not subjected to amnesia treatment) to ensure that these animals not treated with the amnesia agent remembered the task; • (2) base-line control animals (treated with placebo and subjected to amnesia treatment) to ensure that ECS produced amnesia in the animals not treated with the compounds of the present invention.
The sum ΣAij encompasses all the possible pairs obtained by combining each term Xi with each term Xj.

[1] = dose equimolar to 0.9 mg/kg PIRACETAM
[2] = dose equimolar to 9 mg/kg PIRACETAM

## N[C@H]1CCNC1=O [ST 802, (S)-3-amino-2-pyrrolidinone, reference compound]
[1]
  AR (percentage of amnesia reversal): 24%

## O=C(N[C@H]1CCNC1=O)c1cccc(C(F)(F)F)c1 [ST 835, (S)-3-(3-trifluoromethylbenzoylamino)-2-pyrrolidinone]
[1]
  AR (percentage of amnesia reversal): 51%
[2]
  AR (percentage of amnesia reversal): 58%

## O=CN[C@H]1CCNC1=O [ST 879, (S)-3-(formylamino)-2-pyrrolidinone]
[1]
  AR (percentage of amnesia reversal): 53%
[2]
  AR (percentage of amnesia reversal): 9%
